Columns and labels:
Type in all cases: cell-based
Desulfovibrio gigas = assay: Sulfide production by resting cells of D. gigas
Description: Experiments in this example were carried out using resting cells of Desulfovibrio gigas rather than growing cells as was the case for the autoanalyzer system employing the Desulfovibrio desulfuricans G100A strain. […] Thus the experiment examined a different organism, different test system, and a different physiological state for the phenomenon of anthraquinone inhibition of sulfide production by Desulfovibrio sp. Active compounds, as determined by the autoanalyzer, were evaluated in comparison with four additional compounds not evaluated in the autoanalyzer.
500 ml cultures of Desulfovibrio gigas were grown on standard BTZ-3 medium as previously described in Example 1 with 30 mM sodium lactate, 30 mM sodium sulfate and 30 mM sodium fumarate. The culture was harvested after 24 h of growth at 31° C. by centrifugation at 8000 rpm in a GSA Sorvall rotor for 20 minutes. The cell pellet was resuspended in 30 ml of incubation assay mixture of the following composition: 50 mM HEPES buffer pH 7 buffer, 2.5 mM sodium lactate, 2.5 mM sodium sulfate. This suspension was centrifuged again at 10,000 rpm in a Sorvall SS-34 rotor for 5 minutes. The resulting cell pellet was resuspended in 5 ml of incubation assay buffer. Cell densities were generally near 10e10 cells/mi.
The samples were assayed for production in the presence of anthraquinones. 200 ul of the cell suspension was added to 1.2 ml of incubation assay mixture in a 5 ml capacity test tube. The tube was gassed with hydrogen gas for 20 minutes then the anthraquinones were added as ethanolic solutions, the tubes were then gassed with hydrogen again for 5 minutes. The reaction mixtures were then incubated for 3 hours at 31° C. The reactions were stopped by the addition of 200 ul of 1N sodium hydroxide. After 20 minutes the alkaline mixtures were centrifuged in a table top microfuge for 4 minutes at 14,000 rpm to remove cells and cell debris. The supernatant was then assayed for sulfide using the ferric chloride-DPD reagent system as described by Siegel et al., Anal. Blochem., 11:126-132, 1965, herein incorporated by reference.

D. desulfuricans G100A [1] = assay: Growth of D. desulfuricans G100A after addition of inhibitor at 12 h
Description: Four 10 ml culture tubes of BTZ-3 medium as defined in Example 1 supplemented with sodium lactate (40 mM) and sodium sulfate (30 mM) and 0.5 ml of reducing agent were inoculated with 100 ul of a fully grown suspension of D. desulfuricans G100A. The culture was allowed to grow and the optical density at 660 nm was monitored until the cells entered into exponential growth (approx. 12-15 h, O.D. 660=0.1-0.2). At this time 100 ul of a 300 ppm solution of 1,8 dihydroxyanthraquinone, 1-chloranthraquinone or 3-chloro-2-anthraquinone carboxylic acid, respectively, was added to one of the tubes. The ethanol:water (80:20) solvent (100 μl ) was added to the fourth tube to serve as an uninhibited control.
#3 ppm inhibitor added at 12 hours

[2] = tested on: sulfate reducing bacteria (crude enrichments from various naturally-occuring environments); assay: Sulfide production by crude enrichments from naturally-occurring environments; conditions: 5 ppm
Description: All samples were grown on standard BTZ-3 medium (as defined in Example 1) under hydrogen (80%) carbon dioxide (20%) with 10 mM acetate and 0.1% yeast extract. Mud samples were inoculated into this medium and allowed to grow for 24 h to enrich for sulfate reducing bacteria. A 1 ml aliquot of this enrichment was transferred to fresh medium and the sulfide evolved was measured over a three day period. Sulfide was assayed as described by Siegal, Anal. Biochem. 11: 126-132, 1965, herein incorporated by reference.

[3] = tested on: D. desulfuricans strain G100A; assay: Growth by pyruvate fermentation in the absence of sulfate
Description: D. desulfuricans strain G100A was grown using pyruvate fermentation in the absence of sulfate.

D. desulfuricans G100A [4] = assay: Growth of different sulfate-reducers with 1,8-dihydroxyanthraquinone (Example 6); conditions: 3 ppm, 40 hours; control >1.5
Description: (§1) Growth was monitored as optical density at 660 nm for 40 hours.

[5] = tested on: D. desulfuricans #ATCC 27774; assay: Growth of different sulfate-reducers with 1,8-dihydroxyanthraquinone (Example 9); conditions: 3 ppm, 40 hours; control .45
Description: as §1

SMILES: O=C1c2cccc(O)c2C(=O)c2c(O)cccc21 [1,8-Dihydroxyanthraquinone]
- activity at 0.1 ppm (Desulfovibrio gigas; Desulfovibrio, 0.1 ppm, 3 hours at 31° C.): 101%
- activity at 0.5 ppm (Desulfovibrio gigas; Desulfovibrio, 0.5 ppm, 3 hours at 31° C.): 51%
- activity at 2 ppm (Desulfovibrio gigas; Desulfovibrio, 2 ppm, 3 hours at 31° C.): 4%
- activity at 5 ppm (Desulfovibrio gigas; Desulfovibrio, 5 ppm, 3 hours at 31° C.): 2.3%
- inhibition of sulfide production (in words) (Desulfovibrio gigas; resting cells): inhibitory properties
- optical density reading at 660 nm (D. desulfuricans G100A [1]; 0 h of growth, before addition of 3 ppm inhibitor at 12 h): .01
- optical density reading at 660 nm (D. desulfuricans G100A [1]; 10 h of growth, before addition of 3 ppm inhibitor at 12 h): .12
- optical density reading at 660 nm (D. desulfuricans G100A [1]; 12 h of growth, 3 ppm inhibitor added at 12 h): .20
- optical density reading at 660 nm (D. desulfuricans G100A [1]; 14 h of growth, 3 ppm inhibitor added at 12 h): .19
- optical density reading at 660 nm (D. desulfuricans G100A [1]; 18 h of growth, 3 ppm inhibitor added at 12 h): .16
- optical density reading at 660 nm (D. desulfuricans G100A [1]; 20 h of growth, 3 ppm inhibitor added at 12 h): .16
- optical density reading at 660 nm (D. desulfuricans G100A [1]; 24 h of growth, 3 ppm inhibitor added at 12 h): .16
- optical density reading at 660 nm (D. desulfuricans G100A [1]; 29 h of growth, 3 ppm inhibitor added at 12 h): .18
- optical density reading at 660 nm (D. desulfuricans G100A [1]; 34 h of growth, 3 ppm inhibitor added at 12 h): .18
- optical density reading at 660 nm (D. desulfuricans G100A [1]; 62 h of growth, 3 ppm inhibitor added at 12 h): .30
- optical density reading at 660 nm (D. desulfuricans G100A [1]; 92 h of growth, 3 ppm inhibitor added at 12 h): .28
- inhibition of enrichments (in words) [2]: the majority of enrichments from natural sources were inhibited
- sulfide production, treated ([2]; SM-Lewes (Lewes saltmarsh), control 6.4): 4.5 umol sulfide/day
- sulfide production, treated ([2]; VF-A2 (Valley Garden Park, aerobic), control 64.0): -11.0 umol sulfide/day
- sulfide production, treated ([2]; VF-A (Valley Garden Park, aerobic), control 24.0): -2.0 umol sulfide/day
- sulfide production, treated ([2]; VF-AN (Valley Garden Park, anaerobic), control 67.0): 2.8 umol sulfide/day
- sulfide production, treated ([2]; VS-A (Valley Stream State Park, aerobic), control 49.0): -1.0 umol sulfide/day
- sulfide production, treated ([2]; VS-AN2 (Valley Stream State Park, anaerobic), control 116.0): 0.0 umol sulfide/day
- sulfide production, treated ([2]; VS-AN (Valley Stream State Park, anaerobic), control 12.0): -4.0 umol sulfide/day
- sulfide production, treated ([2]; WADS (Wilmington anaerobic digestor), control 106.7): 71.0 umol sulfide/day
- sulfide production, treated ([2]; WCC-A1 (White Clay Creek Preserve, aerobic), control 411.0): 67.0 umol sulfide/day
- sulfide production, treated ([2]; WCC-A2 (White Clay Creek Preserve, aerobic), control 388.0): 49.0 umol sulfide/day
- sulfide production, treated ([2]; WCC-AN1 (White Clay Creek Preserve, anaerobic), control 345.0): 80.0 umol sulfide/day
- sulfide production, treated ([2]; WCC-AN2 (White Clay Creek Preserve, anaerobic), control 288.0): 37.0 umol sulfide/day
- Optical Density @ 660 nm ([3]; 0 h, before addition of 3 ppm at 6.5 h, control .11): .1
- effect on fermentative growth (in words) ([3]; 3 ppm): did not affect fermentative growth
- Optical Density @ 660 nm ([3]; 2 h, before addition of 3 ppm at 6.5 h, control .12): .12
- Optical Density @ 660 nm ([3]; 3.5 h, before addition of 3 ppm at 6.5 h, control .14): .14
- Optical Density @ 660 nm ([3]; 6.5 h, time of addition of 3 ppm, control .15): .16
- Optical Density @ 660 nm ([3]; 8.5 h, 3 ppm added at 6.5 h, control .18): .16
- Optical Density @ 660 nm ([3]; 10.7 h, 3 ppm added at 6.5 h, control .19): .17
- Optical Density @ 660 nm ([3]; 25 h, 3 ppm added at 6.5 h, control .26): .22
- Optical Density @ 660 nm ([3]; 32 h, 3 ppm added at 6.5 h, control .37): .34
- Optical Density @ 660 nm ([3]; 45 h, 3 ppm added at 6.5 h, control .46): .45
- Optical Density @ 660 nm, treated (D. desulfuricans G100A [4]): .20
- Optical Density @ 660 nm, treated [5]: .08

From US5385842A, “Anthraquinones as inhibitors of sulfide production from sulfate-reducing bacteria” (E. I. Du Pont de Nemours and Company, priority 1993, dated 1995)
